Test results from patent US20110039795A1, “2'-O,3'-N-BRIDGED MACROLIDES” (priority 2008, published 2011).

Each compound was assayed on CD1 mice (assay: Phorbol 12-myristate 13-acetate induced ear edema in CD1 mice). Conditions: Mus musculus, topical, 6 h; applied topically once in a dose 500 μg/ear; PMA induced ear edema.
Type: in vivo
Experimental: Phorbol 12-Myristate 13-Acetate Induced Ear Edema in CD1 Mice
Male CD1 mice (Charles River, France) weighing 30-40 g are randomly grouped (n=8 in test group of which the untreated ear serves as negative control; 8 in positive control group which also serves as their own negative control group). Test compounds, as well as vehicle (Trans-phase Delivery system, containing benzyl alcohol 10%, acetone 40% and isopropanol 50%) (all from Kemika, Croatia), are administered topically to the internal surface of the left ear 30 minutes prior to administration of phorbol 12-myristate 13-acetate (PMA) (Sigma, USA). Test compounds are administered at a dose 500 μg in 15 μL per ear. 30 minutes later, 0.01% PMA solution in acetone is applied topically to the inner surface of the left ear of each animal in a volume of 12 μL per ear. During the treatment and challenge, animals are anesthetized with anesthesia by inhalation. 6 h following challenge, animals are euthanized by intraperitoneal thiopental injection (PLIVA, Croatia). For assessing the auricular edema, 8 mm discs are cut out of left and right auricular pinna and weighed. The degree of edema is calculated by subtracting the weight of 8 mm disc of the untreated ear from that of the treated contralateral ear. The inhibition of edema in the treated animals is expressed as percentage compared to control mice.

Structure (SMILES)	inhibition in vivo at 500 µg/ear [%]
CC[C@H]1OC(=O)[C@H](C)[C@@H](O[C@H]2C[C@@](C)(OC)[C@@H](O)[C@H](C)O2)[C@H](C)[C@@H](O[C@@H]2O[C@H](C)C[C@H]3[C@H]2OC(=NCc2ccccc2)N3C)[C@](C)(O)C[C@@H](C)CN(C)[C@H](C)[C@@H](O)[C@]1(C)O (single isomer, unassigned) [Example 1, N′-Benzyl-2′-O,3′-N-(carbonimidoyl)-3′-N-demethyl-9-deoxo-9a-methyl-9a-aza-9a-homoerythromycin A]	> 50
CC[C@H]1OC(=O)[C@H](C)[C@@H](O[C@H]2C[C@@](C)(OC)[C@@H](O)[C@H](C)O2)[C@H](C)[C@@H](O[C@@H]2O[C@H](C)C[C@H]3[C@H]2OC(=Nc2cccc4ccccc24)N3C)[C@](C)(O)C[C@@H](C)CN(C)[C@H](C)[C@@H](O)[C@]1(C)O (single isomer, unassigned) [Example 2, 2′-O,3′-N-(Carbonimidoyl)-3′-N-demethyl-9-deoxo-9a-methyl-N′-(1-naphthyl)-9a-aza-9a-homoerythromycin A]	> 50
CC[C@H]1OC(=O)[C@H](C)[C@@H](O[C@H]2C[C@@](C)(OC)[C@@H](O)[C@H](C)O2)[C@H](C)[C@@H](O[C@@H]2O[C@H](C)C[C@H]3[C@H]2OC(=NC(C)C)N3C)[C@](C)(O)C[C@@H](C)CN(C)[C@H](C)[C@@H](O)[C@]1(C)O (single isomer, unassigned) [Example 3, 2′-O,3′-N-(Carbonimidoyl)-3′-N-demethyl-9-deoxo-N′-isopropyl-9a-methyl-9a-aza-9a-homoerythromycin A]	> 50
CC[C@H]1OC(=O)[C@H](C)[C@@H](O[C@H]2C[C@@](C)(OC)[C@@H](O)[C@H](C)O2)[C@H](C)[C@@H](O[C@@H]2O[C@H](C)C[C@H]3[C@H]2OC(=NC(C)C)N3C)[C@](C)(OC)C[C@@H](C)C(=O)N[C@H](C)[C@@H](O)[C@]1(C)O (single isomer, unassigned) [Example 7, 2′-O,3′-N-(Carbonimidoyl)-3′-N-demethyl-N′-isopropyl-6-O-methyl-9a-aza-9a-homoerythromycin A]	> 50
CC[C@H]1OC(=O)[C@H](C)[C@@H](O[C@H]2C[C@@](C)(OC)[C@@H](O)[C@H](C)O2)[C@H](C)[C@@H](O[C@@H]2O[C@H](C)C[C@H]3[C@H]2OC(=NCCCN(CC)CC)N3C)[C@](C)(OC)C[C@@H](C)C(=O)N[C@H](C)[C@@H](O)[C@]1(C)O (single isomer, unassigned) [Example 8, 2′-O,3′-N-(Carbonimidoyl)-3′-N-demethyl-N′-[3-(diethylamino)propyl]-6-O-methyl-9a-aza-9a-homoerythromycin A]	> 50
CC[C@H]1OC(=O)[C@H](C)[C@@H](O[C@H]2C[C@@](C)(OC)[C@@H](O)[C@H](C)O2)[C@H](C)[C@@H](O[C@@H]2O[C@H](C)C[C@H]3[C@H]2OC(=NC(C)C)N3C)[C@](C)(OC)C[C@@H](C)C(=O)[C@H](C)[C@@H](O)[C@]1(C)O (single isomer, unassigned) [Example 11, 2′-O,3′-N-(Carbonimidoyl)-3′-N-demethyl-N′-isopropyl-6-O-methyl-erythromycin A]	> 50
CC[C@H]1OC(=O)[C@H](C)[C@@H](O[C@H]2C[C@@](C)(OC)[C@@H](O)[C@H](C)O2)[C@H](C)[C@@H](O[C@@H]2O[C@H](C)C[C@H]3[C@H]2O/C(=N/CCCN(CC)CC)N3C)[C@](C)(OC)C[C@@H](C)C(=O)[C@H](C)[C@@H](O)[C@]1(C)O (single isomer, unassigned) [Example 12, 2′-O,3′-N-(Carbonimidoyl)-3′-N-demethyl-N′-[3-(diethylamino)propyl]-6-O-methyl-erythromycin A]	> 50
CC[C@H]1OC(=O)[C@H](C)[C@@H](O[C@H]2C[C@@](C)(OC)[C@@H](O)[C@H](C)O2)[C@H](C)[C@@H](O[C@@H]2O[C@H](C)C[C@H]3[C@H]2OC(=NC)N3C)[C@](C)(OC)C[C@@H](C)C(=O)[C@H](C)[C@@H](O)[C@]1(C)O (single isomer, unassigned) [Example 13, 2′-O,3′-N-(Carbonimidoyl)-3′-N-demethyl-N′-methyl-6-O-methyl-erythromycin A]	> 50
CCN=C1O[C@H]2[C@H](O[C@@H]3[C@@H](C)[C@H](O[C@H]4C[C@@](C)(OC)[C@@H](O)[C@H](C)O4)[C@@H](C)C(=O)O[C@H](CC)[C@@](C)(O)[C@H](O)[C@@H](C)C(=O)[C@H](C)C[C@@]3(C)OC)O[C@H](C)C[C@@H]2N1C (single isomer, unassigned) [Example 14, 2′-O,3′-N-(Carbonimidoyl)-3′-N-demethyl-N′-ethyl-6-O-methyl-erythromycin A]	> 50
CCN=C1O[C@H]2[C@H](O[C@@H]3[C@@H](C)[C@H](O[C@H]4C[C@@](C)(OC)[C@@H](O)[C@H](C)O4)[C@@H](C)C(=O)O[C@H](CC)[C@@](C)(O)[C@H](O)[C@@H](C)NC(=O)[C@H](C)C[C@@]3(C)OC)O[C@H](C)C[C@@H]2N1C (single isomer, unassigned) [Example 15, 2′-O,3′-N-(Carbonimidoyl)-3′-N-demethyl-N′-ethyl-6-O-methyl-9a-aza-9a-homoerythromycin A]	> 50
